Test results published in patent US4296108A, “2,2-Dichlorocyclopropyl-methyl-phosphoric acid derivatives” (priority 1979, dated 1981).

Legend:
Type in all cases: in vivo
[1] = system: cockroaches (Blatta orientalis); assay: whole plant or invertebrate; settings: 48 hours; for mortality at 0.2 mg: 0.2 mg active ingredient per jar; for mortality at 0.1 mg: 0.1 mg active ingredient per jar
Description: Contact action on cockroaches (Blatta orientalis)
The bottom of 1-liter preserving jars is treated with acetonic solutions of the active ingredients. After the solvent has evaporated, 5 adult cockroaches are placed in each jar, and the kill rate is determined after 48 hours.

[2] = system: ticks (Ornithodorus moubata); assay: Contact action on ticks (Ornithodorus moubata); settings: 3rd larval stage, 48 hours
Description: Contact action on ticks (Ornithodorus moubata)
Ticks in the 3rd larval stage are placed in paper bags and dipped for 3 seconds in the emulsion under investigation. The bags are then suspended. The action on the ticks is assessed after 48 hours.

[3] = system: caterpillars of the diamondback moth (Plutella maculipennis); assay: Contact action and effect of ingested food on caterpillars of the diamondback moth (Plutella maculipennis); settings: 4th stage caterpillars, 48 hours, read-out: Kill rate; for mortality at 0.02 %: 0.02 wt % in emulsion; for mortality at 0.01 %: 0.01 wt % in emulsion; for mortality at 0.001 %: 0.001 wt % in emulsion; for mortality at 0.002 %: 0.002 wt % in emulsion
Description: Contact action and effect of ingested food on caterpillars of the diamondback moth (Plutella maculipennis)
Leaves of young cabbage plants are dipped for 3 seconds in aqueous emulsions of the active ingredients and, after excess liquid has been briefly allowed to drip off, placed on a moist filter paper in a Petri dish. 10 caterpillars of the 4th stage are then placed on each leaf.
(§1) The action is assessed after 48 hours.

[4] = system: bean aphids (Aphis fabae); assay: Contact action on bean aphids (Aphis fabae); spray experiment; settings: 48 hours; for mortality at 0.005 %: 0.005 wt % in formulation; for mortality at 0.01 %: 0.01 wt % in formulation
Description: Contact action on bean aphids (Aphis fabae); spray experiment
Potted bean plants (Vicia faba) with extensive bean aphid colonies are sprayed to runoff in a spray booth with aqueous formulations of the active ingredients.
as §1

[5] = system: houseflies (Musca domestica); assay: whole plant or invertebrate; settings: 4 hours; for mortality at 0.02 mg: 0.02 mg active ingredient per dish
Description: Continuous contact action on houseflies (Musca domestica)
Both covers and bottoms of Petri dishes 10 cm in diameter are lined with a total per dish of 2 ml of acetonic solutions of the active ingredients. After the solvent has evaporated (about 30 mins.), 10 flies are introduced into each dish. The kill rate is determined after 4 hours.

[6] = system: houseflies (Musca domestica); assay: Contact action on houseflies (Musca domestica), topical to ventral abdomen; settings: 1 μl in acetone to ventral abdomen; 4-day old imagoes; 4 hours; worked out by graph
Description: Contact action on houseflies (Musca domestica)
1 μl of the active ingredients dissolved in acetone is administered by means of a microsyringe to the ventral abdomen of 4-day old imagoes under slight CO2 narcosis.
20 animals treated in the same way are then placed in a plastic bag having a volume of approx. 500 ml. After 4 hours, the animals in supine position are counted and the LD50 is worked out by means of a graph.

[7] = system: root-knot nematodes (Meloidogyne incognita); assay: Action on root-knot nematodes (Meloidogyne incognita); settings: cucumber, 6 to 8 weeks
Description: Action on root-knot nematodes (Meloidogyne incognita)
Garden soil heavily infested with Meloidogyne incognita is split into 200 g portions which are intimately mixed with 30 ml of aqueous active ingredient formulations and filled into plastic pots. Two cucumber seeds are then placed in the soil prepared in this manner. The temperature is not allowed to go below +22° C.
After 6 to 8 weeks root attack is assessed.

[8] = Aphis fabae, 0.02 wt % in formulation, read-out: Kill rate
[9] = Aphis fabae, read-out: Kill rate
[10] = Musca domestica, read-out: Kill rate
[11] = Blatta orientalis, read-out: Kill rate
[12] = Musca domestica, 0.2 mg active ingredient per dish, read-out: Kill rate

CCOP(=O)(OCC1C(C)(C)C1(Cl)Cl)Oc1ccc([N+](=O)[O-])cc1 (centres unmarked) [Active ingredient 1, O-ethyl-O-[(2,2-dichloro-3,3-dimethyl-cyclopropyl)-methyl]-O-(4-nitrophenyl)phosphate]
mortality at 0.25 mg ([1]; Blatta orientalis, 0.25 mg active ingredient per jar, 5 adult cockroaches, read-out: Kill rate): 80% | Kill rate ([2]; 10.0 ppm in emulsion): 100% | mortality at 0.02 % [3]: 100% | mortality at 0.02 % [4, 8]: 100%

COP(=O)(OCC1CC1(Cl)Cl)Oc1ccccc1[N+](=O)[O-] (centres unmarked) [Active ingredient 3, O-methyl-O-[(2,2-dichlorocyclopropyl)-methyl]-O-(2-nitrophenyl)phosphate]
mortality at 0.005 % [4, 9]: 100%

COP(=O)(OCC1CC1(Cl)Cl)Oc1cc(Cl)c(Cl)cc1Cl (centres unmarked) [Active ingredient 4, O-methyl-O-[(2,2-dichloro-cyclopropyl)-methyl]-O-(2,4,5-trichlorophenyl)phosphate]
Kill rate ([2]; 5.0 ppm in emulsion): 100% | mortality at 0.01 % [4, 9]: ~90% | mortality at 0.02 mg [5, 10]: 100% | LD50 [6]: 0.055 μg/fly

COP(=S)(OC)Oc1cc(Cl)c(Cl)cc1Cl [III]
mortality at 0.5 mg ([1]; Blatta orientalis, 0.5 mg active ingredient per jar, read-out: Kill rate): 100% | mortality at 0.02 % [3]: 50% | LD50 [6]: 0.13 μg/fly

CCOP(=S)(Oc1ccc(Cl)cc1Cl)c1ccccc1 (centres unmarked) [II]
Kill rate ([1]; 1.0 mg active ingredient per jar): ineffective | Kill rate ([4]; 0.02 wt % in formulation): < 80% | Kill rate ([5]; 0.2 mg active ingredient per dish): ineffective

COP(=S)(OC)Oc1ccc([N+](=O)[O-])c(C)c1 [IV]
Kill rate ([1]; 0.25 mg active ingredient per jar, 5 adult cockroaches): ineffective

CCOP(=S)(OCC)SCC1CC1(Cl)Cl (centres unmarked) [I]
root attack (root-knots) ([7]; 0.1 % active ingredient concentration, ditto mark repeats "no root-knots"): sporadic root-knots | mortality at 5 mg ([1]; Blatta orientalis, 5.0 mg active ingredient per jar, read-out: Kill rate): 100% | mortality at 0.1 % ([3]; 0.1 wt % in emulsion): 50% | mortality at 0.1 % ([4]; Aphis fabae, 0.1 wt % in formulation, read-out: Kill rate): < 50% | mortality at 2 mg ([5]; Musca domestica, 2.0 mg active ingredient per dish, read-out: Kill rate): 100%

COP(=O)(OCC1C(C)(C)C1(Cl)Cl)Oc1ccc([N+](=O)[O-])cc1 (centres unmarked) [compound 7]
mortality at 0.2 mg [1, 11]: 100% | Kill rate ([2]; 10.0 ppm in emulsion): 100% | mortality at 0.01 % [3]: 80% | mortality at 0.01 % [4, 9]: ~90% | mortality at 0.2 mg [5, 12]: 100%

COP(=O)(OCC1(C)CC1(Cl)Cl)Oc1ccc([N+](=O)[O-])cc1 (centres unmarked) [compound 10]
mortality at 0.04 mg ([1]; Blatta orientalis, 0.04 mg active ingredient per jar, read-out: Kill rate): 100% | Kill rate ([2]; 10.0 ppm in emulsion): 100% | mortality at 0.01 % [3]: 100% | mortality at 0.01 % [4, 9]: 100% | mortality at 0.2 mg [5, 12]: 100%

COP(=O)(OCC1C(C)(C)C1(Cl)Cl)Oc1ccccc1[N+](=O)[O-] (centres unmarked) [compound 14]
Kill rate ([2]; 10.0 ppm in emulsion): 100%

COP(=O)(OCC1(C)CC1(Cl)Cl)Oc1cc(Cl)c(Cl)cc1Cl (centres unmarked) [compound 16]
root attack (root-knots) ([7]; 0.05 % active ingredient concentration): no root-knots

COP(=O)(OCC1C(C)(C)C1(Cl)Cl)Oc1ccc(SC)cc1 (centres unmarked) [compound 17]
Kill rate ([2]; 2.5 ppm in emulsion): 100% | mortality at 0.2 mg [5, 12]: 80%

CCOP(=O)(OCC1C(C)(C)C1(Cl)Cl)Oc1ccc(SC)cc1 (centres unmarked) [compound 18]
Kill rate ([2]; 2.5 ppm in emulsion): 100%

CCOP(=O)(OCC1C(C)(C)C1(Cl)Cl)Oc1ccc(SC)c(C)c1 (centres unmarked) [compound 19]
Kill rate ([2]; 10.0 ppm in emulsion): 100%

COP(=O)(OCC1C(C)(C)C1(Cl)Cl)Oc1ccc(SC)c(C)c1 (centres unmarked) [compound 20]
Kill rate ([2]; 2.5 ppm in emulsion): 100%

COP(=O)(OCC1(C)CC1(Cl)Cl)Oc1ccc(SC)cc1 (centres unmarked) [compound 21]
mortality at 0.1 mg [1, 11]: 100% | Kill rate ([2]; 1.0 ppm in emulsion): 100% | mortality at 0.2 mg [5, 12]: 100%

COP(=O)(OCC1CC1(Cl)Cl)Oc1ccc(C#N)cc1 (centres unmarked) [compound 23]
mortality at 0.1 mg [1, 11]: 100% | Kill rate ([2]; 1.0 ppm in emulsion): 100% | mortality at 0.001 % [3]: 80% | mortality at 0.005 % [4, 9]: ~90% | mortality at 0.02 mg [5, 10]: 100% | LD50 [6]: 0.073 μg/fly

COP(=O)(OCC1CC1(Cl)Cl)Oc1ccc(SC)cc1 (centres unmarked) [compound 24]
mortality at 0.1 mg [1, 11]: 100% | Kill rate ([2]; 1.0 ppm in emulsion): 100% | mortality at 0.002 % [3]: 80% | mortality at 0.002 % ([4]; Aphis fabae, 0.002 wt % in formulation, read-out: Kill rate): 100% | mortality at 0.02 mg [5, 10]: 100% | LD50 [6]: 0.051 μg/fly

COP(=O)(OCC1CC1(Cl)Cl)Oc1ccc(SC)c(C)c1 (centres unmarked) [compound 25]
mortality at 0.2 mg [1, 11]: 100% | Kill rate ([2]; 10.0 ppm in emulsion): 100% | mortality at 0.002 % [3]: 80% | mortality at 0.005 % [4, 9]: 100% | mortality at 0.02 mg [5, 10]: 80%

COP(=O)(OCC1CC1(Cl)Cl)Oc1ccc(Cl)cc1Cl (centres unmarked) [compound 26]
mortality at 0.02 % [4, 8]: 100% | mortality at 0.2 mg [5, 12]: 100%

COP(=O)(OCC1CC1(Cl)Cl)Oc1ccc([N+](=O)[O-])cc1 (centres unmarked) [compound 27]
mortality at 0.02 mg ([1]; Blatta orientalis, 0.02 mg active ingredient per jar, read-out: Kill rate): 80% | Kill rate ([2]; 1.0 ppm in emulsion): 100% | mortality at 0.001 % [3]: 100% | mortality at 0.005 % [4, 9]: ~90% | mortality at 0.02 mg [5, 10]: 100% | LD50 [6]: 0.057 μg/fly

COP(=O)(OCC1C(C)C1(Cl)Cl)Oc1cc(Cl)c(Cl)cc1Cl (centres unmarked) [compound 28]
mortality at 0.02 % [4, 8]: 100% | mortality at 0.2 mg [5, 12]: 80%

COP(=O)(OCC1C(C)C1(Cl)Cl)Oc1ccc(Cl)cc1Cl (centres unmarked) [compound 29]
mortality at 0.02 % [4, 8]: 100%

COP(=O)(OCC1C(C)C1(Cl)Cl)Oc1ccc(SC)cc1 (centres unmarked) [compound 30]
Kill rate ([2]; 10.0 ppm in emulsion): 100% | mortality at 0.01 % [4, 9]: 100% | mortality at 0.2 mg [5, 12]: 100%

COP(=O)(OCC1C(C)C1(Cl)Cl)Oc1ccc([N+](=O)[O-])cc1 (centres unmarked) [compound 31]
mortality at 0.2 mg [1, 11]: 100% | Kill rate ([2]; 5.0 ppm in emulsion): 100% | mortality at 0.01 % [3]: 80%

COP(=O)(OCC1(C)CC1(Cl)Cl)Oc1ccc([N+](=O)[O-])cc1Cl (centres unmarked) [compound 32]
Kill rate ([2]; 10.0 ppm in emulsion): 100% | mortality at 0.008 % ([4]; Aphis fabae, 0.008 wt % in formulation, read-out: Kill rate): 100% | mortality at 0.2 mg [5, 12]: 100%

COP(=O)(OCC1(C)CC1(Cl)Cl)Oc1ccc([N+](=O)[O-])c(C)c1 (centres unmarked) [compound 33]
mortality at 0.01 % [4, 9]: 100% | mortality at 0.2 mg [5, 12]: 80%
